Results reported in ChEMBL document CHEMBL5500363, “Discovery of novel ocotillol derivatives modulating glucocorticoid receptor/NF-κB signaling for the treatment of sepsis” (Eur J Med Chem, 2024).
The source made the active and inactive calls. No cut-off for these calls is given here.

What was measured:
Mus musculus [1] = test: Downregulation of p65 phosphorylation in liver of LPS-induced sepsis BALB/c mouse model at 7.5 to 30 mg/kg administered via gavage for 3 days followed by LPS treatment for 6 hrs by Western blot analysis; type: functional, organism-based; settings: dose 7.5-30 mg/kg, time 78.0 hrs
RAW264.7 [2] = test: Inhibition of LPS-induced NO production in mouse RAW264.7 cells at 20 uM pretreated for 2 hrs followed by LPS stimulation for 24 hrs by Griess assay relative to control; type: functional; settings: time 26 hrs
RAW264.7 [3] = test: Anti-inflammatory activity in LPS-treated mouse RAW264.7 cells assessed as reversal of nuclear translocation of p65 at 20 uM pretreated for 2 hrs followed by LPS stimulation for 24 hrs by immunofluorescence analysis; type: functional, cell-based; settings: time 26.0 hrs
RAW264.7 [4] = test: Inhibition of LPS-induced NO production in mouse RAW264.7 cells at 5 uM pretreated for 2 hrs followed by LPS stimulation for 24 hrs by Griess assay relative to control; type: functional; settings: time 26 hrs
Mus musculus [5] = test: Anti-septic activity in LPS-induced sepsis BALB/c mouse assessed as reduction in serum CRP level at 30 mg/kg administered via gavage for 3 days followed by LPS treatment for 6 hrs; type: functional, organism-based; settings: time 78.0 hrs
[6] = biological target: T1, Glucocorticoid receptor (Mus musculus) (UniProt P06537); test: Stabilization of glucocorticoid receptor in mouse RAW264.7 cells assessed as blockade of CHX-induced protein degradation at 20 uM incubated for 24 hrs by Western blot analysis; type: cell-based
T1 sequence (whole entry): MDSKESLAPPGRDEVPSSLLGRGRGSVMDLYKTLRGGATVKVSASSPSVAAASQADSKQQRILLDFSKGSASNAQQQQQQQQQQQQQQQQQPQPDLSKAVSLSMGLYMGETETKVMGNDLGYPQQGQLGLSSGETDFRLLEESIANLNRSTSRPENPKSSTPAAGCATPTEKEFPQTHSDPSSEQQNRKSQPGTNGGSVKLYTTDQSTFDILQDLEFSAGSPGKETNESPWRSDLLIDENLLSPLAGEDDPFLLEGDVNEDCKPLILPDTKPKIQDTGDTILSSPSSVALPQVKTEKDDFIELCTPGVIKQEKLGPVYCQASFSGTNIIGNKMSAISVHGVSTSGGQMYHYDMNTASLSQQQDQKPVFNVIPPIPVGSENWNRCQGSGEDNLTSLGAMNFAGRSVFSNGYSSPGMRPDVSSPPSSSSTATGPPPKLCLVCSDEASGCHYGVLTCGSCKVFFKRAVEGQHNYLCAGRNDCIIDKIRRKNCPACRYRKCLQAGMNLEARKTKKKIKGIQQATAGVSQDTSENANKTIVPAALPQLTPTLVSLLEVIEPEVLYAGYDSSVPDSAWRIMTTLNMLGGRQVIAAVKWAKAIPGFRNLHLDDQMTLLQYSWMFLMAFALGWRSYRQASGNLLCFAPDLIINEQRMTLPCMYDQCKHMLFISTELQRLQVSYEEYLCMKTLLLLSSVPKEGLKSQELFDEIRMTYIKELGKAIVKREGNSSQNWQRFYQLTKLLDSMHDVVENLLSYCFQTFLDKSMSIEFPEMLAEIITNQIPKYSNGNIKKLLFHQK

Mus musculus [7] = test: Downregulation of I-kappa-B-alpha phosphorylation in liver of LPS-induced sepsis BALB/c mouse model at 7.5 to 30 mg/kg administered via gavage for 3 days followed by LPS treatment for 6 hrs by Western blot analysis; type: functional, organism-based; settings: dose 7.5-30 mg/kg, time 78.0 hrs
RAW264.7 [8] = test: Inhibition of LPS-induced NO production in mouse RAW264.7 cells pretreated for 2 hrs followed by LPS stimulation for 24 hrs by Griess assay; type: functional, cell-based
RAW264.7 [9] = test: Anti-inflammatory activity in mouse RAW264.7 cells assessed as decrease in LPS-induced p65 phosphorylation at 20 uM pretreated for 2 hrs followed by LPS stimulation for 24 hrs by Western blot analysis; type: functional, cell-based; settings: time 26.0 hrs
Mus musculus [10] = test: Anti-septic activity in LPS-induced sepsis BALB/c mouse assessed as reduction in serum AST level at 30 mg/kg administered via gavage for 3 days followed by LPS treatment for 6 hrs; type: functional, organism-based; settings: time 78.0 hrs
RAW264.7 [11] = test: Anti-inflammatory activity in mouse RAW264.7 cells assessed as decrease in LPS-induced I-kappaB-alpha phosphorylation at 20 uM pretreated for 2 hrs followed by LPS stimulation for 24 hrs by Western blot analysis; type: functional, cell-based; settings: time 26.0 hrs
RAW264.7 [12] = test: Effect on KLF9 mRNA expression in mouse RAW264.7 cells by qPCR analysis; type: functional, cell-based
RAW264.7 [13] = test: Inhibition of LPS-induced NO production in mouse RAW264.7 cells at 10 uM pretreated for 2 hrs followed by LPS stimulation for 24 hrs by Griess assay relative to control; type: functional; settings: time 26 hrs
Mus musculus [14] = test: Anti-septic activity in LPS-induced sepsis BALB/c mouse assessed as reduction in serum ALT level at 30 mg/kg administered via gavage for 3 days followed by LPS treatment for 6 hrs; type: functional, organism-based; settings: time 78.0 hrs
RAW264.7 [15] = test: Downregulation of glucocorticoid receptor in LPS-treated mouse RAW264.7 cells at 1 uM incubated for 24 hrs by qRT-PCR analysis; type: functional, cell-based
RAW264.7 [16] = test: Downregulation of glucocorticoid receptor in mouse RAW264.7 cells at 1 uM incubated for 24 hrs by Western blot analysis; type: functional, cell-based

## CC(C)=CCC[C@@](C)(O)C1CC[C@]2(C)[C@@H]1[C@H](O)C[C@@H]1[C@@]3(C)CC[C@H](O)C(C)(C)[C@@H]3CC[C@]12C (stereo partly specified)
Mus musculus [1]
  Activity: inactive
RAW264.7 [2]
  inhibition at 20 µM: 31.4%
RAW264.7 [3]
  Activity: Active
RAW264.7 [4]
  inhibition at 5 µM: 7.09%
Mus musculus [5]
  Activity: Active
[6]
  Activity: inactive
Mus musculus [7]
  Activity: inactive
RAW264.7 [8]
  IC50: 34.4 µM
RAW264.7 [9]
  Activity: Active
Mus musculus [10]
  Activity: Active
RAW264.7 [11]
  Activity: Active
RAW264.7 [12]
  Activity: inactive
RAW264.7 [13]
  inhibition at 10 µM: 11.2%
Mus musculus [14]
  Activity: Active

## C[C@@H]1C[C@H]2[C@@H]3CCC4=CC(=O)C=C[C@]4(C)[C@@]3(F)[C@@H](O)C[C@]2(C)[C@@]1(O)C(=O)CO
RAW264.7 [15]
  Activity: Active
RAW264.7 [16]
  Activity: Active
